Laboratory results from EP2295560A1, “Directed evolution of arginine deiminase for increased activity at physiological pH” (priority 2009, dated 2011).

Target: Pseudomonas plecoglossicida arginine deiminase (PpADI) variant M2 (K5T D44E H404R) (Pseudomonas plecoglossicida, UniProt A7LKB0, D44E/H404R/K5T)
Test: Determination of kcat and Km (citrulline colorimetric assay, purified enzyme)
Assay type: biochemical, Pseudomonas plecoglossicida CGMCC2039
Conditions: pH 7.4, conversion of arginine to citrulline, compared to wild type
Procedure: The kcat and Km values were determined from initial velocity data measured as a function of substrate concentration. Enzyme reaction was carried out at 37°C in a water bath. After 10 min preincubation at 37"C, the enzyme reaction was initiated by addition of purified enzyme (50 µl, 0.2-0.5 µM) to the substrate solution (200 µl, 0.2 mM to 10 mM of arginine, 0.5 M phosphate buffer, pH 7.4) in deep well plates. The reaction mixture was incubated (37°C) and every two minutes reaction mixture (30 µl) of each well was transferred to acid-ferric solution (30 µl) to stop the enzyme reaction. The color development was subsequently performed in 96-well PCR plate. Ferric-acid solution (90 µl) and DAM-TSC solution (15 µl) were added to each well. The 96-well PCR plate was then incubated (70°C, 30 min) in thermal cycler (Eppendorf Mastercyler gradient) for color development, followed by incubation in ice water to stop color development. Absorbance was measured at 530 nm using a microtiter plate reader (SPECTROstar Omega, BMG LABTECH, Offenburg, Germany). […] The kcat was calculated from the ratio of Vmax, and enzyme concentration. […]

Sequence of Pseudomonas plecoglossicida arginine deiminase (PpADI) variant M2 (K5T D44E H404R) (A7LKB0 whole entry D44E/H404R/K5T): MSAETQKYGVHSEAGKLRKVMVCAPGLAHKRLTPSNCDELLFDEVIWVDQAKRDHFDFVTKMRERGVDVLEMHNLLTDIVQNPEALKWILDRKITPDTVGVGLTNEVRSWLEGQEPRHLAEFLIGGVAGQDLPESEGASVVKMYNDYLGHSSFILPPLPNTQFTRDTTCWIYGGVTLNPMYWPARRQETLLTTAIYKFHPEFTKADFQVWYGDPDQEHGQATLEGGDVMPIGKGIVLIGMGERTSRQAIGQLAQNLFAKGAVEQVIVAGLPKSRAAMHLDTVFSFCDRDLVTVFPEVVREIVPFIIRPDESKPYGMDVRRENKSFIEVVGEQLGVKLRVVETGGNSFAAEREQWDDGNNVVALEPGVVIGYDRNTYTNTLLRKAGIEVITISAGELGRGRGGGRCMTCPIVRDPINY

N=C(N)NCCC[C@H](N)C(=O)O [arginine]
kcat, fold higher than wild type PpADI: 4 fold
